Measured values: article PMC10154443, “Peptide-based PET imaging agent of tumor TIGIT expression” (EJNMMI Research, 2023)
Where a SMILES comes first, the peptide text is derived from it. [ ]: non-standard residue; d: D form. The star is where a group is joined. DOTA = O=C(O)CN1CCN(CC(=O)O)CCN(CC(=O)*)CCN(CC(=O)O)CC1; Ahx = NCCCCCC(=O)O

Experiments:
4T1 cells = assay: cell uptake experiment, 4T1 cells; assay type: cell-based, murine
Method: (§1) For cell uptake experiments, 4T1 and A375 cells were incubated with ^68Ga-DOTA-^DTBP-3 at different time points (15, 30, 60 and 120 min), respectively. Then, the cells were washed 3 times with cold PBS, and 0.1 M NaOH solution was used to lyse the cells and collected for γ-count.

A375 cells = assay: cell uptake experiment, A375 cells; assay type: cell-based, human; settings: A375 cells (low TIGIT expression), at 0.5 h; time points 15, 30, 60, 120 min; γ-count
Method: as §1

[1] = system: 4T1 tumor-bearing BALB/c mice; assay type: in vivo
Method: (§2) Female BALB/c mice of 4–5 weeks were purchased from Beijing Biotechnology Co., Ltd. (Beijing, China). The 4T1 murine cancer model was established by the injection of 3 × 10^5 cells/150 μl into the front right limbs of female BALB/c mice. Experiments started when the tumors reached a volume of approximately 250–350 mm^3.
PET images were acquired on a micro-PET scanner (InliView-3000B, Minfound, Hangzhou, China). Mice bearing subcutaneous tumors were anesthetized with isoflurane (1.0–1.5%) and then were injected with about 5.55 MBq of ^68Ga-DOTA-^DTBP-3 via the tail vein. In the blocking group, tumor-bearing BALB/c were pretreated with the 40-fold excess of ^DTBP-3 for 0.5 h, and then injected equal dose of radiotracer with the above groups. Static imaging (15 min) was collected at different time points (0.5, 1 and 2 h post-injection).

[2] = system: 4T1 tumor-bearing BALB/c mice; assay type: in vivo; remark: listed apart in the source
Method: as §2
Female BALB/c tumor-bearing mice with subcutaneous 4T1 xenografts were randomly divided into 2 groups (n = 9 for the experimental group, and n = 3 for the blocking group), and then were injected with 3.70 MBq of ^68Ga-DOTA-^DTBP-3 via the tail vein. At different time points (0.5, 1 and 2 h post-injection for the experimental group, 0.5 h post-injection for the blocking group), the mice were euthanized, and the tumor, main organs (muscle, bone, large intestine, small intestine, stomach, kidney, spleen, liver, lung, heart, brain) and blood were weighed and counted by a γ counter. The results are expressed as percentage injected dose per gram of tissue (% ID/g), and the values were calculated based on signal decay correction and normalization to external ^68Ga standards.

## CC(C)C[C@@H](NC(=O)[C@@H](CCCNC(=N)N)NC(=O)[C@@H](Cc1c[nH]cn1)NC(=O)[C@@H](Cc1c[nH]c2ccccc12)NC(=O)[C@@H](Cc1c[nH]cn1)NC(=O)[C@@H](Cc1ccccc1)NC(=O)[C@H](NC(=O)[C@@H](Cc1ccc(O)cc1)NC(=O)CNC(=O)CNC(=O)CCCCCNC(=O)CN1CCN(CC(=O)O)CCN(CC(=O)O)CCN(CC(=O)O)CC1)[C@H](C)O)C(=O)N[C@H](CC(N)=O)C(=O)N1CCC[C@@H]1C(=O)O [^68Ga-DOTA-^DTBP-3, metal not drawn] ({DOTA-Ahx}-GG[dY][dT][dF][dH][dW][dH][dR][dL][dN][dP]-OH; N-terminus and C-terminus assumed)
4T1 cells; 4T1 cells (high TIGIT expression), at 0.5 h, time points 15, 30, 60, 120 min, γ-count
  cell uptake of radiotracer (highest): 8.41 ± 1.22%
4T1 cells; 4T1 cells, excess unlabeled ^DTBP-3
  4T1 cellular uptake with excess unlabeled ^DTBP-3 (blocking): could be blocked
A375 cells
  cell uptake of radiotracer (highest): 2.56 ± 0.19%
[1]; 4T1 tumor, 0.5 h after intravenous injection, about 5.55 MBq, n = 3
  tumor uptake on micro-PET: 3.49 ± 0.14
[1]; 4T1 tumor-bearing mice pretreated with 40-fold excess unlabeled ^DTBP-3 for 0.5 h
  tumor uptake on micro-PET, blocking group: no obvious uptake
[1]; mouse, in vivo
  time of peak uptake of tumor tissue: about 0.5 h
[2]; 0.5 h post-injection
  tumor-to-blood ratio (biodistribution): high
  tumor-to-muscle ratio (biodistribution): high
[2]; mouse, in vivo
  clearance from the blood: quickly cleared
